Source: US20070270436A1, “NOVEL AMINO- AND IMINO-ALKYLPIPERAZINES” (Recordati Ireland Limited, priority 2006, published 2007)
Read-outs that look alike come from different tables or passages of the source.

Experiments:
5-HT1A receptors = target: T1, 5-HT1A receptors (Rattus norvegicus, UniProt P19327); assay: Inhibition of serotonergic syndrome (forepaw treading) induced by 8-OH-DPAT in rats (post-synaptic antagonism); format: in vivo; conditions: rat, 10 mg/kg p.o.
T1 construct: from tissue; host or cells: living male Sprague-Dawley rats (whole animal, behavioural read-out)
T1 sequence (P19327 1-422): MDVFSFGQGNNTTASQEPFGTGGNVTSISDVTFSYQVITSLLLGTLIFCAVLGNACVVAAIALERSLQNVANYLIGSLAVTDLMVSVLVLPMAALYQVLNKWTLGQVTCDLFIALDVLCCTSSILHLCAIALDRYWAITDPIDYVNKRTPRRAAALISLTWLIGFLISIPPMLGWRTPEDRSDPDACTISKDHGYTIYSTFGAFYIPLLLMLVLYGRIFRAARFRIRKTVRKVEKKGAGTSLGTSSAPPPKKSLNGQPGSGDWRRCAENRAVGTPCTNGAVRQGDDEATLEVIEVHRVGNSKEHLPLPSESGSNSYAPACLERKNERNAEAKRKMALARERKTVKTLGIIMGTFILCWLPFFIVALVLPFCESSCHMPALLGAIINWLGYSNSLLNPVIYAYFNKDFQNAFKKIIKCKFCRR
Method: The inhibitory effect of 5-HT1A-receptor antagonists on stereotyped forepaw treading induced in rats by subcutaneous injection of 8-OH-DPAT was evaluated by the method of Tricklebank (Tricklebank et al., Eur. J. Pharmacol., 117: 15, 1985) with minor modifications as described below.
Male Sprague-Dawley rats [Crl: CD® (SD) IGS BR] weighing 150-175 g from Charles River Italia were used. The animals were housed with free access to food and water and maintained on a forced 12-hour-light/12-hour-dark cycle at 22-24° C. of temperature. On the day of the experiment, the rats were placed singly in clear plastic containers, 10-15 minutes before oral administration of the vehicle or compounds to be tested. For evaluation of antagonistic activity, the compounds were administered 1 and 4 hours before induction of stereotypy by 8-OH-DPAT (1 mg/kg subcutaneously). Observation sessions lasted 30 seconds and began 3 minutes after 8-OH-DPAT treatment and were repeated every 3 minutes over a period of 15 minutes.
The appearance of the symptoms induced by postsynaptic stimulation of 5-HT1A receptors was noted, and the intensity was scored using an intensity scale in which: 0=absent, 1=equivocal, 2=present and 3=intense. Behavioural scores for treated rats were accumulated throughout the observation time (5 observation periods) and expressed as mean values of 4 rats/dose. Change in mean values of treated animals in comparison with control (vehicle) group, expressed as per-cent inhibition, was used to quantify the antagonistic activity.
In order to quantitate the potency of the compound of Example 24 in inhibiting the stereotypy (forepaw treading) induced by 8-OH-DPAT, an ED50 value (dose inhibiting by 50% the forepaw treading) was evaluated by means of linear regression using the least square method.

[1] = target: T2, human 5HT1A-serotonergic receptor (Homo sapiens, UniProt P08908); assay: Radioligand binding to recombinant 5-HT1A receptor ([3H]8-OH-DPAT, HeLa cell membranes); conditions: 1 nM [3H]8-OH-DPAT; Ki from IC50 by the Cheng equation; read-out: Ki (nM), binding affinity for 5HT1A receptor
T2 construct: expressed in transfected cells; host or cells: HeLa (human), stably transfected; membranes
T2 sequence (P08908 1-422): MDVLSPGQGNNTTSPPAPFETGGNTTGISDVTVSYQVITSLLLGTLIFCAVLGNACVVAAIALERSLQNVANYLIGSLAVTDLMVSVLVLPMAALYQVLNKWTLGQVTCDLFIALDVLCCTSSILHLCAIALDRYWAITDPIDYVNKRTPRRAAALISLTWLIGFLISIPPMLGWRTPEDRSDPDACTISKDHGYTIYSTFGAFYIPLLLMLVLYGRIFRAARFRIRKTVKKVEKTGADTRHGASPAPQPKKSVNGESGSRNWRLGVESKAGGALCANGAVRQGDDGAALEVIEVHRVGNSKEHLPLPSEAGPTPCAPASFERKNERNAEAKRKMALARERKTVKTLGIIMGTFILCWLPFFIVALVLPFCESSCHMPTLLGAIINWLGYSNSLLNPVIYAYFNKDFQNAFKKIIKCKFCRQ
Method: Genomic clone G-21 encoding the human 5HT1A-serotonergic receptor was stably transfected in a human cell line (HeLa). HeLa cells were grown as monolayers in Dulbecco's modified Eagle medium (DMEM), containing 10% fetal bovine serum and gentamycin (100 μg/ml) at 37° C. in a humidified atmosphere of 5% CO2 and air. The cells were detached from the growth flask at 95% confluence by a cell scraper and were lysed in cold 5 mM Tris and 5 mM EDTA buffer (pH 7.4). The homogenates were centrifuged at 40000×g×20 minutes and the pellets were resuspended in a small volume of cold 5 mM Tris and 5 mM EDTA buffer (pH 7.4) and immediately frozen and stored at −70° C. until use. On the day of experiment, the cell membranes were resuspended in incubation buffer: 50 mM Tris (pH 7.4), 2.5 mM MgCl2, 10 μM pargyline (Fargin et al., Nature 335, 358-360, 1988). The membranes were incubated in a final volume of 0.32 ml for 30 minutes at 30° C. with 1 nM [^3H]8-OH-DPAT, in the absence or presence of the test compounds. Non-specific binding was determined in the presence of 10 μM 5-HT. Incubation was stopped by addition of cold Tris buffer and rapid filtration through UniFilter GF/C plate.
The affinity of the tested compounds was evaluated as inhibition of specific binding of the radioligand to 5-HT1A receptor (IC50) by using the non-linear curve-fitting program Allfit (De Lean et al., Am. J. Physiol. 235, E97-E102 (1978)). The IC50 value was converted to an affinity constant (Ki) by the equation of Cheng et al., Biochem. Pharmacol. 22, 3099-3108 (1973).

[2] = tested on: rhythmic bladder-voiding contractions; assay: Rhythmic bladder-voiding contractions induced by bladder filling in anaesthetised rats; format: in vivo, rat; conditions: intravenous administration
Method: Female Sprague-Dawley rats weighing 225-275 g (Crl: CD® (SD) IGS BR, Charles River Italia) were used. The animals were housed with free access to food and water and maintained on a forced 12-hour alternating light-dark cycle at 22-24° C. for at least one week, except during the experiment. The activity on rhythmic bladder voiding contractions was evaluated according to the method of Dray (Dray J., Pharmacol. Methods, 13:157, 1985), with some modifications as in Guarneri (Guarneri, Pharmacol. Res. 27:173, 1993). Briefly, the rats were anaesthetised by subcutaneous injection of 1.25 g/kg (5 ml/kg) urethane, after which the urinary bladder was catheterised via the urethra using PE 50 polyethylene tubing filled with physiological saline. The catheter was tied in place with a ligature around the external urethral orifice and was connected to conventional pressure transducers (Statham P23 ID/P23 XL). […] The bladder was then filled via the recording catheter by incremental volumes of warm (37° C.) saline until reflex bladder-voiding contractions occurred (usually 0.8-1.5 ml). For intravenous injection of bioactive compounds, PE 50 polyethylene tubing filled with physiological saline was inserted into the jugular vein.
From the cystometrogram, the number of contractions recorded 15 minutes before (basal values) and after treatment, as well as the mean amplitude of these contractions (mean height of the peaks in mmHg), was evaluated.
Since most compounds produced an effect that was relatively rapid in onset and led to a complete cessation of bladder contractions, bioactivity was conveniently estimated by measuring the duration of bladder quiescence (i.e., the time during which no contractions occurred). The number of tested animals showing a reduction in the number of contractions higher than 30% of that observed in the basal period was recorded too.
The extrapolated doses which induced a reduction in the number of contractions greater than 30% in 50% of the treated rats (ED50) were also evaluated by the method of Bliss (Bliss C. I., Quart J. Pharm. Pharmacol. 11, 192-216, 1938).

[3] = 1 h before 8-OH-DPAT 1 mg/kg s.c., read-out: % Inhibition of forepaw treading, 1 h
[4] = 4 h before 8-OH-DPAT 1 mg/kg s.c., read-out: % Inhibition of forepaw treading, 4 h

Row | SMILES | inhibition at 10 mg/kg (5-HT1A receptors; [3]) | Ki [1] | inhibition at 10 mg/kg (5-HT1A receptors; [4]) | ED50 ([2]; Rattus norvegicus, read-out: ED50 (frequency) (extrapolated dose inducing a reduction of the number of contractions >30% in 50% of treated rats)) | ED10 min (extrapolated dose inducing 10 minutes of disappearance of the contractions) [2]
1 | CON[C@H](C1CCCCC1)[C@H](CCN1CCN(c2ccccc2OC)CC1)c1ccccc1F (racemic) [Example 4b, (RS,RS)-N-{1-Cyclohexyl-2-(2-fluorophenyl)-4-[4-(2-methoxyphenyl)piperazin-1-yl]butyl}-O-methylhydroxylamine] | 71% | – | 67% | – | –
2 | COc1ccccc1N1CCN(CC[C@@H](c2ccccc2F)[C@H](NC(=O)N(C)C)C2CCCCC2)CC1 (racemic) [Example 21, 3-{(RS,SR)-1-Cyclohexyl-2-(2-fluorophenyl)-4-[4-(2-methoxyphenyl)-piperazin-1-yl]butyl}-1,1-dimethylurea] | 94% | 2.1 nM | 65% | – | –
3 | COc1ccc(Br)c(CN2CCN(CCC(c3ccccc3F)C(NC(C)=O)C3CCCCC3)CC2)c1 (centres unmarked) [Example 45, N-[4-[4-(2-Bromo-5-methoxybenzyl)piperazin-1-yl]-1-cyclohexyl-2-(2-fluoro-phenyl)butyl]acetamide] | – | 1.1 nM | – | – | –
4 | O=CNC(C1CCCCC1)C(CCN1CCN(c2cccc3[nH]ccc23)CC1)c1ccccc1F (centres unmarked) [Example 52, N-{1-Cyclohexyl-2-(2-fluorophenyl)-4-[4-(1H-indol-4-yl)piperazin-1-yl]butyl}formamide] | – | 2.3 nM | – | – | –
5 | Cc1c(-c2ccccc2)oc2c(C(=O)OCCN3CCCCC3)cccc2c1=O [Flavoxate, flavoxate] | – | – | – | 2.65 mg/kg | >10 mg/kg

Second part, led by results:

Row | inhibition at 10 mg/kg (5-HT1A receptors; [3]) | Ki [1] | inhibition at 10 mg/kg (5-HT1A receptors; [4]) | SMILES | ED50 ([2]; Rattus norvegicus, read-out: ED50 (frequency) (extrapolated dose inducing a reduction of the number of contractions >30% in 50% of treated rats)) | ED10 min (extrapolated dose inducing 10 minutes of disappearance of the contractions) [2]
6 | 71% | 0.16 nM | – | COc1ccccc1N1CCN(CCC(C(=NO)C2CCCCC2)c2ccccc2F)CC1 (mixture of isomers) [Example 1, 1-Cyclohexyl-2-(2-fluorophenyl)-4-[4-(2-methoxyphenyl)-piperazin-1-yl]butan-1-one oxime] | – | –
7 | 86% | 0.88 nM | 68% | CONC(C1CCCCC1)C(CCN1CCN(c2ccccc2OC)CC1)c1ccccc1F (mixture of isomers) [Example 4, N-{1-Cyclohexyl-2-(2-fluorophenyl)-4-[4-(2-methoxyphenyl)piperazin-1-yl]butyl}-O-methylhydroxylamine] | – | –
8 | 56% | 1 nM | 56% | COc1ccccc1N1CCN(CC[C@@H](c2ccccc2F)[C@@H](C2CCCCC2)N(C)C)CC1 (racemic) [Example 11, {(RS,SR)-1-Cyclohexyl-2-(2-fluorophenyl)-4-[4-(2-methoxyphenyl)-piperazin-1-yl]butyl}dimethylamine] | – | –
9 | – | 0.8 nM | – | COc1ccc(Br)c(CN2CCN(CCC(c3ccccc3F)C(C3CCCCC3)N(C)C(C)=O)CC2)c1 (centres unmarked) [Example 46, N-[4-[4-(2-Bromo-5-methoxybenzyl)piperazin-1-yl]-1-cyclohexyl-2-(2-fluorophenyl)butyl]-N-methylacetamide] | – | –
10 | – | 0.8 nM | – | O=CNC(C1CCCCC1)C(CCN1CCN(c2cccc3[nH]cnc23)CC1)c1ccccc1F (centres unmarked) [Example 47, N-[4-[4-(1H-Benzimidazol-4-yl)piperazin-1-yl]-1-cyclohexyl-2-(2-fluoro-phenyl)butyl]formamide] | – | –
11 | – | 0.3 nM | – | NC(C1CCCCC1)C(CCN1CCN(c2cccc3[nH]cnc23)CC1)c1ccccc1F (centres unmarked) [Example 48, 4-[4-(1H-Benzimidazol-4-yl)piperazin-1-yl]-1-cyclohexyl-2-(2-fluorophenyl)butylamine] | – | –
